{"source": "paper PMC4441592", "about": "(Neuron, 2015)", "key": {"KOR": {"biological_target": "KOR (Homo sapiens, UniProt P41145)", "sequence (P41145 whole entry)": "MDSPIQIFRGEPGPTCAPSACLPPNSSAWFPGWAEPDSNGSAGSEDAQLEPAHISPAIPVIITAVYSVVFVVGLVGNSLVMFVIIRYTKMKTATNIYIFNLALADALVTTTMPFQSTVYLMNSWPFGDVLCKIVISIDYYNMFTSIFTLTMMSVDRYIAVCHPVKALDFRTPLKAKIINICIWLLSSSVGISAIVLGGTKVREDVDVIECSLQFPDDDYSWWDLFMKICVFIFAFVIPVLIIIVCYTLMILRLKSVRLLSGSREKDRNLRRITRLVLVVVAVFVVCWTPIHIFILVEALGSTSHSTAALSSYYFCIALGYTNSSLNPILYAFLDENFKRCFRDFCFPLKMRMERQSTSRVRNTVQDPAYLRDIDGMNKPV", "test": "cell-based"}, "KORD (D138N hKOR)": {"biological_target": "KORD (D138N hKOR) (Homo sapiens, UniProt P41145, D138N)", "sequence (P41145 whole entry D138N)": "as the sequence (P41145 whole entry) above, with D138N counted along it", "test": "cell-based", "details": "EC50(nM)"}}, "note": "Peptide text beside a SMILES is read from it.", "data": [{"smiles": "CC(C)C[C@H](NC(=O)[C@H](Cc1ccccc1)NC(=O)CNC(=O)CNC(=O)[C@@H](N)Cc1ccc(O)cc1)C(=O)N[C@@H](CCCNC(=N)N)C(=O)N[C@@H](CCCNC(=N)N)C(=O)O", "note": "[Dynorphin A(1-7)]", "values": [{"measurement": "Emax", "setting": "KOR", "value": 97, "unit": "%"}]}, {"smiles": "CSCC[C@H](NC(=O)[C@H](Cc1ccccc1)NC(=O)CNC(=O)CNC(=O)[C@@H](N)Cc1ccc(O)cc1)C(=O)N[C@@H](CCCNC(=N)N)C(=O)N[C@@H](CCCNC(=N)N)C(=O)N[C@H](C(=O)NCC(=O)N[C@@H](CCCNC(=N)N)C(=O)N1CCC[C@H]1C(=O)N[C@@H](CCC(=O)O)C(=O)N[C@@H](Cc1c[nH]c2ccccc12)C(=O)N[C@@H](Cc1c[nH]c2ccccc12)C(=O)N[C@@H](CCSC)C(=O)N[C@@H](CC(=O)O)C(=O)N[C@@H](Cc1ccc(O)cc1)C(=O)N[C@@H](CCC(N)=O)C(=O)N[C@@H](CCCNC(=N)N)C(=O)N[C@@H](Cc1ccc(O)cc1)C(=O)NCC(=O)O)C(C)C", "note": "[BAM 22] (H-YGGFMRRVGRPEWWMDYQRYG-OH)", "values": [{"measurement": "Emax", "setting": "KOR", "value": 95, "unit": "%"}, {"measurement": "EC50", "setting": "KOR; EC50(nM)", "value": 93, "unit": "nM"}, {"measurement": "EC50", "setting": "KOR; pEC50 ± SEM", "value": 93.3, "unit": "nM"}, {"measurement": "EC50", "setting": "KORD (D138N hKOR)", "value": "> 10000", "unit": "nM"}]}, {"smiles": "CC(C)C[C@H](NC(=O)[C@H](Cc1ccccc1)NC(=O)CNC(=O)CNC(=O)[C@@H](N)Cc1ccc(O)cc1)C(=O)N[C@@H](CCCNC(=N)N)C(=O)O", "note": "[Dynorphin A(1-6)] (H-YGGFLR-OH)", "values": [{"measurement": "Emax", "setting": "KOR", "value": 86, "unit": "%"}]}, {"smiles": "CC[C@H](C)[C@H](NC(=O)[C@H](CCCNC(=N)N)NC(=O)[C@H](CCCNC(=N)N)NC(=O)[C@H](CC(C)C)NC(=O)[C@H](Cc1ccccc1)NC(=O)CNC(=O)CNC(=O)[C@@H](N)Cc1ccc(O)cc1)C(=O)N[C@@H](CCCNC(=N)N)C(=O)O", "note": "[Dynorphin A(1-9)] (H-YGGFLRRIR-OH)", "values": [{"measurement": "Emax", "setting": "KOR", "value": 93, "unit": "%"}]}, {"smiles": "CSCC[C@H](NC(=O)[C@H](Cc1ccccc1)NC(=O)CNC(=O)CNC(=O)[C@@H](N)Cc1ccc(O)cc1)C(=O)N[C@@H](CCCNC(=N)N)C(=O)N[C@@H](CCCNC(=N)N)C(=O)N[C@H](C(=O)NCC(=O)N[C@@H](CCCNC(=N)N)C(=O)N1CCC[C@H]1C(=O)N[C@@H](CCC(=O)O)C(=O)O)C(C)C", "note": "[BAM 12] (H-YGGFMRRVGRPE-OH)", "values": [{"measurement": "Emax", "setting": "KOR", "value": 99, "unit": "%"}, {"measurement": "EC50", "setting": "KOR; EC50(nM)", "value": 101, "unit": "nM"}, {"measurement": "EC50", "setting": "KOR; pEC50 ± SEM", "value": 102, "unit": "nM"}, {"measurement": "EC50", "setting": "KORD (D138N hKOR)", "value": "> 10000", "unit": "nM"}]}, {"smiles": "CC[C@H](C)[C@H](NC(=O)[C@H](C)NC(=O)[C@H](CC(N)=O)NC(=O)[C@H](CCCCN)NC(=O)[C@H](Cc1ccccc1)NC(=O)[C@H](CC(C)C)NC(=O)[C@@H](NC(=O)[C@@H](NC(=O)[C@H](CC(C)C)NC(=O)[C@@H]1CCCN1C(=O)[C@@H](NC(=O)[C@H](CCC(N)=O)NC(=O)[C@H](CO)NC(=O)[C@H](CCCCN)NC(=O)[C@H](CCC(=O)O)NC(=O)[C@H](CO)NC(=O)[C@@H](NC(=O)[C@H](CCSC)NC(=O)[C@H](Cc1ccccc1)NC(=O)CNC(=O)CNC(=O)[C@@H](N)Cc1ccc(O)cc1)[C@@H](C)O)[C@@H](C)O)C(C)C)[C@@H](C)O)C(=O)N[C@H](C(=O)N[C@@H](CCCCN)C(=O)N[C@@H](CC(N)=O)C(=O)N[C@@H](C)C(=O)N[C@@H](Cc1ccc(O)cc1)C(=O)O)[C@@H](C)CC", "note": "[β-Endorphin (1-27)] (H-YGGFMTSEKSQTPLVTLFKNAIIKNAY-OH; N-terminus and C-terminus assumed)", "values": [{"measurement": "Emax", "setting": "KOR", "value": 100, "unit": "%"}, {"measurement": "EC50", "setting": "KOR; EC50(nM)", "value": 700, "unit": "nM"}, {"measurement": "EC50", "setting": "KOR; pEC50 ± SEM", "value": 708, "unit": "nM"}, {"measurement": "EC50", "setting": "KORD (D138N hKOR)", "value": "> 10000", "unit": "nM"}]}, {"smiles": "CC[C@H](C)[C@H](NC(=O)[C@H](CCCNC(=N)N)NC(=O)[C@H](CCCNC(=N)N)NC(=O)[C@H](CC(C)C)NC(=O)[C@H](Cc1ccccc1)NC(=O)CNC(=O)CNC(=O)[C@@H](N)Cc1ccc(O)cc1)C(=O)O", "note": "[Dynorphin A(1-8)]", "values": [{"measurement": "Emax", "setting": "KOR", "value": 94, "unit": "%"}]}, {"smiles": "CSCC[C@H](NC(=O)[C@H](Cc1ccccc1)NC(=O)CNC(=O)CNC(=O)[C@@H](N)Cc1ccc(O)cc1)C(=O)N[C@@H](CCCNC(=N)N)C(=O)N[C@@H](Cc1ccccc1)C(=O)O", "note": "[Met-enkephalin-Arg-Phe] (H-YGGFMRF-OH)", "values": [{"measurement": "Emax", "setting": "KOR", "value": 99, "unit": "%"}]}, {"smiles": "CC(C)C[C@H](NC(=O)[C@H](Cc1ccccc1)NC(=O)CNC(=O)CNC(=O)[C@@H](N)Cc1ccc(O)cc1)C(=O)N[C@@H](CCCNC(=N)N)C(=O)N[C@@H](CCCCN)C(=O)N[C@@H](Cc1ccc(O)cc1)C(=O)N1CCC[C@H]1C(=O)N[C@@H](CCCCN)C(=O)O", "note": "[α-Neoendrophin] (H-YGGFLRKYPK-OH)", "values": [{"measurement": "Emax", "setting": "KOR", "value": 95, "unit": "%"}, {"measurement": "EC50", "setting": "KOR; EC50(nM)", "value": 64, "unit": "nM"}, {"measurement": "EC50", "setting": "KOR; pEC50 ± SEM", "value": 64.6, "unit": "nM"}, {"measurement": "EC50", "setting": "KORD (D138N hKOR)", "value": "> 10000", "unit": "nM"}]}, {"smiles": "CC[C@H](C)[C@H](NC(=O)[C@H](C)NC(=O)[C@H](CC(N)=O)NC(=O)[C@H](CCCCN)NC(=O)[C@H](Cc1ccccc1)NC(=O)[C@H](CC(C)C)NC(=O)[C@@H](NC(=O)[C@@H](NC(=O)[C@H](CC(C)C)NC(=O)[C@@H]1CCCN1C(=O)[C@@H](NC(=O)[C@H](CCC(N)=O)NC(=O)[C@H](CO)NC(=O)[C@H](CCCCN)NC(=O)[C@H](CCC(=O)O)NC(=O)[C@H](CO)NC(=O)[C@@H](NC(=O)[C@H](CCSC)NC(=O)[C@H](Cc1ccccc1)NC(=O)CNC(=O)CNC(=O)[C@@H](N)Cc1ccc(O)cc1)[C@@H](C)O)[C@@H](C)O)C(C)C)[C@@H](C)O)C(=O)N[C@H](C(=O)N[C@@H](CCCCN)C(=O)N[C@@H](CC(N)=O)C(=O)N[C@@H](C)C(=O)N[C@@H](Cc1ccc(O)cc1)C(=O)N[C@@H](CCCCN)C(=O)N[C@@H](CCCCN)C(=O)NCC(=O)N[C@@H](CCC(=O)O)C(=O)O)[C@@H](C)CC", "note": "[β-Endorphin (1-31)]", "values": [{"measurement": "Emax", "setting": "KOR", "value": 100, "unit": "%"}, {"measurement": "EC50", "setting": "KOR; EC50(nM)", "value": 706, "unit": "nM"}, {"measurement": "EC50", "setting": "KOR; pEC50 ± SEM", "value": 708, "unit": "nM"}, {"measurement": "EC50", "setting": "KORD (D138N hKOR)", "value": "> 10000", "unit": "nM"}]}, {"smiles": "CSCC[C@H](NC(=O)[C@H](Cc1ccccc1)NC(=O)CNC(=O)CNC(=O)[C@@H](N)Cc1ccc(O)cc1)C(=O)N[C@@H](CCCNC(=N)N)C(=O)N[C@@H](CCCNC(=N)N)C(=O)N[C@H](C(=O)NCC(=O)N[C@@H](CCCNC(=N)N)C(=O)N1CCC[C@H]1C(=O)N[C@@H](CCC(=O)O)C(=O)N[C@@H](Cc1c[nH]c2ccccc12)C(=O)N[C@@H](Cc1c[nH]c2ccccc12)C(=O)N[C@@H](CCSC)C(=O)N[C@@H](CC(=O)O)C(=O)N[C@@H](Cc1ccc(O)cc1)C(=O)N[C@@H](CCC(N)=O)C(=O)N[C@@H](CCCNC(=N)N)C(=O)N[C@@H](Cc1ccc(O)cc1)C(=O)NCC(=O)NCC(=O)N[C@@H](Cc1ccccc1)C(=O)N[C@@H](CC(C)C)C(=O)O)C(C)C", "note": "[Peptide E] (H-YGGFMRRVGRPEWWMDYQRYGGFL-OH)", "values": [{"measurement": "Emax", "setting": "KOR", "value": 95, "unit": "%"}, {"measurement": "EC50", "setting": "KOR; EC50(nM)", "value": 65, "unit": "nM"}, {"measurement": "EC50", "setting": "KOR; pEC50 ± SEM", "value": 66.1, "unit": "nM"}, {"measurement": "EC50", "setting": "KORD (D138N hKOR)", "value": "> 10000", "unit": "nM"}]}, {"smiles": "CC[C@H](C)[C@H](NC(=O)[C@H](CCCN=C(N)N)NC(=O)[C@H](CCCN=C(N)N)NC(=O)[C@H](CC(C)C)NC(=O)[C@H](Cc1ccccc1)NC(=O)CNC(=O)CNC(=O)[C@@H](N)Cc1ccc(O)cc1)C(=O)N[C@@H](CCCN=C(N)N)C(=O)O", "note": "[Dynorphin A(1-9)] (H-YGGFLRRIR-OH)", "values": [{"measurement": "EC50", "setting": "KOR; EC50(nM)", "value": 127, "unit": "nM"}, {"measurement": "EC50", "setting": "KOR; pEC50 ± SEM", "value": 129, "unit": "nM"}, {"measurement": "EC50", "setting": "KORD (D138N hKOR)", "value": "> 10000", "unit": "nM"}]}, {"smiles": "CC(C)C[C@H](NC(=O)[C@H](Cc1ccccc1)NC(=O)CNC(=O)CNC(=O)[C@@H](N)Cc1ccc(O)cc1)C(=O)N[C@@H](CCCNC(=N)N)C(=O)N[C@@H](CCCNC(=N)N)C(=O)N[C@@H](CCC(N)=O)C(=O)N[C@@H](Cc1ccccc1)C(=O)N[C@@H](CCCCN)C(=O)N[C@H](C(=O)N[C@H](C(=O)N[C@H](C(=O)O)[C@@H](C)O)C(C)C)C(C)C", "note": "[Dynorphin B(1-13)]", "values": [{"measurement": "Emax", "setting": "KOR", "value": 100, "unit": "%"}]}, {"smiles": "CSCC[C@H](NC(=O)[C@H](Cc1ccccc1)NC(=O)CNC(=O)CNC(=O)[C@@H](N)Cc1ccc(O)cc1)C(=O)N[C@@H](CCCNC(=N)N)C(=O)N[C@@H](CCCNC(=N)N)C(=O)N[C@H](C(N)=O)C(C)C", "note": "[Metorphamide]", "values": [{"measurement": "Emax", "setting": "KOR", "value": 97, "unit": "%"}, {"measurement": "EC50", "setting": "KOR; EC50(nM)", "value": 108, "unit": "nM"}, {"measurement": "EC50", "setting": "KOR; pEC50 ± SEM", "value": 102, "unit": "nM"}, {"measurement": "EC50", "setting": "KORD (D138N hKOR)", "value": "> 10000", "unit": "nM"}]}, {"smiles": "CSCC[C@H](NC(=O)[C@H](Cc1ccccc1)NC(=O)CNC(=O)CNC(=O)[C@@H](N)Cc1ccc(O)cc1)C(=O)O", "note": "[Met-enkephalin]", "values": [{"measurement": "Emax", "setting": "KOR", "value": 79, "unit": "%"}]}]}
